Test systems include SK-MEL-2 melanoma; 786-0 renal; SR leukemia; BT-549 breast; KM12 colon; NCI/ADR-RES ovarian; OVCAR-8 ovarian; OVCAR-4 ovarian; DLD-1 colon.
Holding throughout (assay): DTP human tumour cell line panel, 48 h

In PubChem BioAssay (NCI) one finds GI50 and TGI data, which are given here for 10 compounds.

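How tested: cells in 96-well plates exposed to compound for 48 hours at five concentrations. Here, GI50 denotes the concentration required for 50% inhibition of growth. At the TGI there is no net growth.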

A word on the GI50: it is the concentration that inhibits growth by half. What is called TGI is the concentration at which net growth stops. Read a high TGI as less potent growth arrest.

For the compound `CCCN(CCC)c1ccc(C=O)cc1`, the GI50 was 98.2 µM in the experiment on SK-MEL-2 melanoma; 81 µM with 786-0 renal; 33.7 µM with SR leukemia; 35.4 µM with BT-549 breast; > 70.8 µM in the experiment with KM12 colon; 56.3 µM with NCI/ADR-RES ovarian. The GI50 is 61.9 µM in the experiment on OVCAR-8 ovarian and 26.5 µM in the experiment on OVCAR-4 ovarian. For the same compound, the concentration for total growth inhibition (TGI) with SK-MEL-2 melanoma, in the experiment on 786-0 renal, in the experiment with SR leukemia, in the experiment on BT-549 breast, in the experiment on KM12 colon and in the experiment on NCI/ADR-RES ovarian was > 100 µM in each case. Further, the TGI in the experiment on OVCAR-8 ovarian and in the experiment on OVCAR-4 ovarian was > 100 µM throughout.

`C[C@]12CCC3[C@@H](C[C@H]4OC(=O)[C@@]35CCC(=O)C=C45)C1CCC2=O` (stereo partly drawn): the TGI in the experiment with SK-MEL-2 melanoma, in the experiment on 786-0 renal, in the experiment on SR leukemia, in the experiment with KM12 colon, in the experiment with DLD-1 colon and in the experiment on OVCAR-8 ovarian was > 100 µM each time.

Take `COC1OCC(OS(=O)(=O)c2ccc(C)cc2)C(OC(=O)c2ccccc2)C1OC(=O)c1ccccc1` (stereo not drawn): the GI50 is 5.72 µM in the experiment on SK-MEL-2 melanoma; 5.13 µM in the experiment on 786-0 renal; 3.07 µM with SR leukemia; > 100 µM with BT-549 breast; 4.04 µM in the experiment with KM12 colon; 3.64 µM in the experiment on NCI/ADR-RES ovarian. In addition, the GI50 in the experiment with OVCAR-8 ovarian was > 100 µM; in the experiment with OVCAR-4 ovarian it was 9.24 µM. Moreover, the TGI in the experiment on SK-MEL-2 melanoma, with 786-0 renal, in the experiment on SR leukemia, with BT-549 breast, with KM12 colon and in the experiment on NCI/ADR-RES ovarian was > 100 µM in each case. Also, the TGI in the experiment with OVCAR-8 ovarian and with OVCAR-4 ovarian was > 100 µM each time.

`CN(C)c1ccc(/C=C(\C#N)c2cc3ccccc3n2C)cc1`: the concentration for 50% growth inhibition (GI50) with SK-MEL-2 melanoma is 0.328 µM; in the experiment with 786-0 renal, 0.418 µM; with SR leukemia, 0.0396 µM; with BT-549 breast, 0.618 µM; with KM12 colon, 0.211 µM; in the experiment on NCI/ADR-RES ovarian, 0.0895 µM. In addition, the GI50 in the experiment with OVCAR-8 ovarian is 0.405 µM; with OVCAR-4 ovarian it was 0.701 µM. Further, the TGI in the experiment with SK-MEL-2 melanoma, in the experiment on 786-0 renal, in the experiment on BT-549 breast, in the experiment with KM12 colon, with NCI/ADR-RES ovarian and in the experiment on OVCAR-8 ovarian was > 100 µM in each case. Besides, the TGI with OVCAR-4 ovarian is > 100 µM.

Turning to `Nc1ccccc1/C=N\Nc1ccccc1`, the GI50 in the experiment with SK-MEL-2 melanoma was 65.4 µM; with 786-0 renal, 2.69 µM; in the experiment with SR leukemia, 26.6 µM; in the experiment on BT-549 breast, 74.1 µM; with KM12 colon, 0.602 µM; in the experiment on NCI/ADR-RES ovarian, 5.8 µM. For the same compound, the GI50 is > 100 µM with OVCAR-8 ovarian and 3.91 µM with OVCAR-4 ovarian. Further, the total growth inhibition concentration (TGI) in the experiment on SK-MEL-2 melanoma, in the experiment with 786-0 renal, in the experiment with SR leukemia, with BT-549 breast, in the experiment with KM12 colon and in the experiment on NCI/ADR-RES ovarian was > 100 µM throughout. Also, the TGI with OVCAR-8 ovarian and in the experiment on OVCAR-4 ovarian was > 100 µM each time.

Consider `O=C(O)CN(CC(=O)O)Cc1cc2c(cc1O)Oc1cc(O)c(CN(CC(=O)O)CC(=O)O)cc1C21OC(=O)c2ccccc21`, for which the concentration for total growth inhibition (TGI) in the experiment with SK-MEL-2 melanoma, with 786-0 renal, with SR leukemia, in the experiment on BT-549 breast, with KM12 colon and in the experiment on NCI/ADR-RES ovarian was > 100 µM each time. In addition, the concentration for total growth inhibition (TGI) with OVCAR-8 ovarian and in the experiment on OVCAR-4 ovarian was > 100 µM throughout.

In the case of `CC(C)c1ccc2c(N=Nc3ccc(S(N)(=O)=O)cc3)c(O)[nH]c2c1`, the GI50 with SK-MEL-2 melanoma is > 13.1 µM; in the experiment with 786-0 renal it was 12.6 µM; in the experiment with SR leukemia, > 16.2 µM; in the experiment on BT-549 breast, 8.76 µM; with KM12 colon it was 1.24 µM; in the experiment on NCI/ADR-RES ovarian it was > 13.5 µM. The GI50 in the experiment with OVCAR-8 ovarian is 10.3 µM; with OVCAR-4 ovarian it was > 25 µM. The TGI in the experiment on SK-MEL-2 melanoma is > 21.6 µM; with 786-0 renal it was > 25 µM; in the experiment with SR leukemia, > 25 µM; with BT-549 breast, > 16.4 µM; with KM12 colon, > 25 µM; with NCI/ADR-RES ovarian, > 25 µM. Also, the TGI is > 20.1 µM in the experiment with OVCAR-8 ovarian and > 25 µM in the experiment with OVCAR-4 ovarian.

Regarding `CSC(=S)N/N=C/c1ccccc1`, the TGI with SK-MEL-2 melanoma, with 786-0 renal, in the experiment with SR leukemia, in the experiment on BT-549 breast, with KM12 colon and with NCI/ADR-RES ovarian was > 100 µM throughout. Further, the values for the concentration for total growth inhibition (TGI) with OVCAR-8 ovarian and with OVCAR-4 ovarian were > 100 µM and 98.5 µM, respectively.

In the case of `O=C(CCCCCCC(=O)N/N=C/c1ccc(N(c2ccccc2)c2ccccc2)cc1)NO`, the GI50 in the experiment with SK-MEL-2 melanoma is 2.71 µM; in the experiment with 786-0 renal it was 1.58 µM; in the experiment with SR leukemia, 2.38 µM; in the experiment on BT-549 breast, 2.38 µM; in the experiment on KM12 colon it was 2.72 µM; with NCI/ADR-RES ovarian it was 3.07 µM. The figures for the GI50 in the experiment with OVCAR-8 ovarian and in the experiment on OVCAR-4 ovarian were 3.02 µM and 1.65 µM, respectively. In addition, the total growth inhibition concentration (TGI) came to 7.81 µM in the experiment with SK-MEL-2 melanoma; 3.7 µM in the experiment on 786-0 renal; 14.1 µM in the experiment with SR leukemia; 11.5 µM with BT-549 breast; 13.1 µM with KM12 colon; 20.5 µM in the experiment on NCI/ADR-RES ovarian. For the same compound, the concentration for total growth inhibition (TGI) in the experiment on OVCAR-8 ovarian was 20.8 µM; in the experiment on OVCAR-4 ovarian, 8.72 µM.

Take `O=C(/C=C/C=C/c1ccccc1)c1ccc(Nc2nc(Nc3ccccc3)nc(Nc3ccccc3)n2)cc1`: the GI50 in the experiment on SK-MEL-2 melanoma was > 100 µM; in the experiment on 786-0 renal it was 45.8 µM; in the experiment with SR leukemia, 9.45 µM; in the experiment on BT-549 breast, > 100 µM; with KM12 colon, 57.9 µM; in the experiment on NCI/ADR-RES ovarian it was > 100 µM. In addition, the GI50 in the experiment with OVCAR-8 ovarian was 31.4 µM; in the experiment on OVCAR-4 ovarian it was 88.1 µM. The TGI in the experiment on SK-MEL-2 melanoma is > 100 µM; in the experiment on 786-0 renal, > 100 µM; with SR leukemia, 92.9 µM; in the experiment with BT-549 breast, > 100 µM; in the experiment on KM12 colon, > 100 µM; in the experiment on NCI/ADR-RES ovarian it was > 100 µM. Further, the total growth inhibition concentration (TGI) with OVCAR-8 ovarian and in the experiment with OVCAR-4 ovarian was > 100 µM in each case.
